# Source: patent publication US6326526A, “Melatonin receptor-deficient mice and uses thereof” (Bristol-Myers Squibb Company, priority 2000, dated 2001)
# Columns and labels:
# [1] = test system: rat SCN single-unit activity rhythm; settings: rats; read-out: EC50 of phase-shifting effect on the single-unit activity rhythm; cited from earlier work
# [2] = test system: SCN slices from wild-type mice (multiunit activity); assay: SCN multiunit recordings, melatonin-induced inhibition of neuronal firing, wild-type mice; assay type: cell-based, mouse
# Procedure: (§1) Adult male wild-type and homozygous mutant mice were housed in LD 12:12 for a minimum of three weeks prior to experimentation. After the adaptation period, the mice were killed 2.0 to 4.5 hours after lights-on, and brains were rapidly dissected and placed into ACSF medium containing 116.3 mM NaCl, 5,4 mM KCl, 1.0 mM NaH2 PO4, 26.2 mM NaHCO3, 1.8 mM CaCl2, 0.8 mM MgSO4, 24.6 mM dextrose, and 5 mg/l Gentamicin sulphate, pH 7.5. A block of tissue containing the hypothalamus was dissected from the brain and transferred to a manual tissue chopper where coronal hypothalamic brain slices (400 μm in thickness) containing the SCN were prepared. Slices were placed in a Haas-type brain slice chamber (Haas H. L., et al., J. Neurosci. Methods 1:323-325, 1979; Medical Systems Corp.) and gauze strips placed over the slices in the vicinity of the SCN to raise the fluid level above the slices. They were continually superfused with ACSF medium warmed to 37° C. To record multiple-unit SCN electrical activity, a 76 μm-diameter, teflon-coated platinum-iridium wire electrode was lowered into the brain slice in the SCN (Bouskila, Y., and Dudek, F. E., Proc. Natl. Acad. Sci. USA 90:3207-3210, 1993). This electrical activity was amplified, and the number of electrical events was counted with a window discriminator (Fintronics Inc., Orange, Conn.). Data were collected and analyzed by computer, using Brainwave™ (Data Waver Technologies, Broomfield, Colo.) or Spike 2™ (Cambridge Electronic Design, Cambridge, Mass.) software. The average number of electrical events in successive 1-minute intervals was determined and plotted against the circadian time of recording. Slices were excluded if their viability was compromised on day 2 of recording.
# Melatonin was prepared as a 100 μM stock solution in 100% ethanol, which was serially diluted with ACSF medium to yield four melatonin concentrations between 0.1 and 100 nM. A stock solution of vehicle (100% ethanol) was serially diluted with ACSF medium to yield the corresponding vehicle for each melatonin concentration. Melatonin or vehicle was applied by gravity flow in the bath for 30 minutes at each concentration before switching to the next solution. […] In the mouse experiments at circadian time 4.5-6.5 where only the single highest vehicle concentration was used as a comparator, the vehicle was applied for 30 minutes prior to the application of melatonin. A programmable automatic solution switching system (AutoMate Scientific Inc., Oakland, Calif.) was employed to time solution applications.
# (§2) The maximum percent inhibition of SCN neuronal firing during each 30 minutes application of melatonin or vehicle was calculated with respect to the average multiunit firing rate during the 5 minute period prior to the first application of a series, and plotted.
# [3] = test system: SCN slices from Mel1a receptor-deficient (homozygous mutant) mice (multiunit activity); settings: 0.1 to 100 nM, CT 9.5-11.5 and CT 4.5-6.5, relative to vehicle
# Procedure: as §1, with “Slices were placed in a Haas-type brain slice chamber (Haas H. L., et al., J. Neurosci. Methods 1:323-325, 1979; Medical Systems Corp.) and gauze strips placed over the slices in the vicinity of the SCN to raise the fluid level above the slices. They were continually superfused with ACSF medium warmed to 37° C. To record multiple-unit SCN electrical activity, a 76 μm-diameter, teflon-coated platinum-iridium wire electrode was lowered into the brain slice in the SCN (Bouskila, Y., and Dudek, F. E., Proc. Natl. Acad. Sci. USA 90:3207-3210, 1993).” left out, “Slices were excluded if their viability was compromised on day 2 of recording.” left out
# as §2
# [4] = test system: SCN slices from wild-type mice (single-unit electrical activity rhythm); assay: SCN single unit recordings, phase shift of electrical activity rhythm, wild-type mice; assay type: cell-based, mouse
# Procedure: (§3) Mice were housed in LD 12:12 for three weeks prior to experimentation. After adaptation, mice were killed by decapitation during the light phase of the LD cycle. Hypothalamic slices (500 μm) were prepared using a tissue chopper and incubated at 37° C., as previously described (Liu, C., and Gillette, M. U., J. Neurosci. 16:744-751, 1996). For most experiments, perfusion was discontinued during the 1-hour treatment with melatonin or vehicle (0.0001% ethanol in perfusion medium). For the pertussis toxin experiment, perfusion was discontinued for 6 hours, ending after the vehicle or melatonin treatment. At the end of treatment, the medium in the chamber was replaced, and perfusion was resumed with melatonin-free medium. Single units from the SCN were recorded the following day with glass microelectrodes (Liu, C., and Gillette, M. U., J. Neurosci. 16:744-751, 1996). Signals were amplified, filtered to a band width of 0.3-3 kHz, and stored (MacADIO II, GW Instruments, Somerville, Mass.). Voltage pulses exceeding preset recording threshold were detected on-line by custom software. Off-line analysis assigned a cluster of spikes of similar amplitude and width to each unit recorded (Meister, M., et al., J. Neurosci. Methods 51:95-101, 1994). Firing rate data were analyzed as previously described to determine the time-of-peak in the activity rhythm (Liu, C., and Gillette, M. U., J. Neurosci. 16:744-751, 1996).
# [5] = test system: SCN slices from Mel1a receptor-deficient (homozygous mutant) mice (single-unit electrical activity rhythm); assay: SCN single unit recordings, phase shift of electrical activity rhythm, Mel1a receptor-deficient mice; assay type: cell-based, mouse
# Procedure: as §3
smiles,measurement,setting,value
COc1ccc2[nH]cc(CCNC(C)=O)c2c1 [melatonin],EC50,[1],< 0.1 nM
same,inhibition at 0.001 µM,"[2]; Mus musculus, 1 nM, at night CT 18, wild-type C57BL/6 mice, n=8",33.9 ± 3.9%
same,EC50,"[2]; Mus musculus, 0.1-100 nM, 30 min each, CT 4.5-6.5, day 2 in culture",0.412 nM
same,Percent inhibition of SCN firing rate,"[2]; increasing melatonin 0.1-100 nM, CT 4.5-6.5 of day 2 (FIG. 4A)",over 30%
same,Percent inhibition of SCN firing rate,"[2]; melatonin 0.1-100 nM, CT 9.5-11.5 of day 1, plateau (FIG. 4B)",about 13%
same,Inhibition of SCN multiunit activity,[3],unable to significantly inhibit SCN multiunit activity
same,Phase advance in circadian phase,"[4]; application at CT 9.5-10.5, preliminary studies of wildtype mice",approximately 4 hour
same,Phase shift in the electrical activity rhythm,[4]; application from CT 5.5-6.5,did not elicit significant phase shifts
same,CT of activity peak,"[4]; application from CT 5.5-6.5, n=3",6.8 ± 0.3 h
same,Circadian time of the activity peak,[5],6.6 ± 0.1 h
same,Phase of the firing rhythm peak,[5],not shifted
same,Phase shift (phase advance) in the electrical activity rhythm peak,"[5]; 1 nM, CT 9.5-10.5",approximately 4 hour
same,Phase advance in circadian phase,"[5]; 1 nM, CT 9.5-10.5, after 5-hour static bath of normal medium, n=3",3.2 ± 0.1 h
